The supplement of paper PMC10307832

Columns and labels:
Assay in all cases: relative viability (nuclei count vs DMSO), 5 days (fraction); higher = more cells survive
[1] = compound: C1=CC=C2C(=C1)C=CC(=C2SSC3=C(C=CC4=CC=CC=C43)O)O [IPA-3]
Summary of the method: (§1)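 Only plates meeting two conditions passed: control CV below 25% and at least one doubling. Lung cancer cell lines, kept overnight at 37 °C in 1536-well plates, were pinned with five library-drug doses (not always all listed) √10 apart on vehicle-anchored plates and grown 5 days without medium change. A one-step fix, permeabilisation and Hoechst stain preceded 4× imaging and MetaXpress nuclear counting. Viability equals treated-well nuclei divided by vehicle-well nuclei, as the median over plates.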

[2] = compound: Cc1ccc(-n2nc(C(C)(C)C)cc2NC(=O)Nc2ccc(OCCN3CCOCC3)c3ccccc23)cc1 [Doramapimod]
Summary of the method: as §1

[3] = compound: Cn1c(Nc2ccc(C(F)(F)F)cc2)nc2cc(Oc3ccnc(-c4ncc(C(F)(F)F)[nH]4)c3)ccc21 [RAF265]
Summary of the method: as §1

[4] = compound: Cc1ccc(-n2nc(C(C)(C)C)cc2NC(=O)Nc2ccc(OCCN3CCOCC3)c3ccccc23)cc1 [Doramapimod] + Cc1nc(Nc2ncc(C(=O)Nc3c(C)cccc3Cl)s2)cc(N2CCN(CCO)CC2)n1 [Dasatinib] (partner 0.075 µM)
Summary of the method: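 Dosing by pin tool came one day after lung cancer cell lines were seeded in 1536-well plates, using either one drug or a fixed anchor-drug dose plus five library-drug doses (not always all listed) in √10 steps. After 5 days, nuclei were counted on 4× images. Relative viability is treated-well nuclei count divided by vehicle-well nuclei count, and values are medians of duplicate plates.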

Row | Cell Line | relative viability ([1]; 0.2 µM) | relative viability ([1]; 0.6325 µM) | relative viability ([1]; 2 µM) | relative viability ([1]; 6.325 µM) | relative viability ([1]; 20 µM) | relative viability ([2]; 0.02 µM) | relative viability ([2]; 0.06325 µM) | relative viability ([2]; 0.2 µM) | relative viability ([2]; 0.6325 µM) | relative viability ([2]; 2 µM) | relative viability ([3]; 0.01 µM) | relative viability ([3]; 0.03162 µM) | relative viability ([3]; 0.1 µM) | relative viability ([3]; 0.3162 µM) | relative viability ([3]; 1 µM) | relative viability ([4]; first compound 0.02 µM) | relative viability ([4]; first compound 0.06325 µM) | relative viability ([4]; first compound 0.2 µM) | relative viability ([4]; first compound 0.6325 µM) | relative viability ([4]; first compound 2 µM)
1 | 201T | 0.998 | 0.975 | 0.958 | 0.993 | 1.09 | 1 | 1.02 | 0.975 | 1.15 | 0.957 | 1.04 | 0.99 | 1.02 | 0.977 | 0.992 | 0.611 | 0.571 | 0.49 | 0.598 | 0.517
2 | A549 | 1.18 | 0.962 | 1.01 | 1.05 | 1.16 | 0.956 | 0.976 | 0.951 | 0.999 | 0.878 | 1.01 | 0.926 | 0.967 | 0.667 | 0.412 | – | – | – | – | –
3 | A-427 | 1.14 | 0.965 | 0.976 | 0.962 | 1.11 | 0.962 | 1.03 | 1.1 | – | 0.985 | 1.03 | 0.862 | 1.01 | 0.575 | 0.356 | 0.728 | 0.768 | 0.733 | – | 0.672
4 | ABC-1 | 1.08 | 0.972 | 0.805 | 1.04 | 1.02 | 0.996 | 0.864 | 0.955 | 0.895 | 0.961 | 1.22 | 0.881 | 0.986 | 0.803 | 0.633 | 0.572 | 0.581 | 0.539 | 0.534 | 0.498
5 | BEN | 0.982 | 0.951 | 1.07 | 0.943 | 1.15 | 0.874 | 0.922 | 1 | 0.82 | 0.884 | 0.968 | 1.11 | 1.11 | 0.95 | 0.907 | 0.34 | 0.349 | 0.317 | 0.345 | 0.273
6 | CAL-12T | 1.15 | 0.846 | 0.967 | 0.93 | 1.03 | 0.995 | 0.976 | 1.03 | 1.01 | 0.931 | 1.08 | 0.955 | 0.936 | 0.723 | 0.603 | 0.521 | 0.371 | 0.306 | 0.44 | 0.348
7 | COR-L23 | 1.15 | 0.912 | 1.11 | 0.923 | 0.982 | 1.01 | 1.08 | 0.981 | 0.964 | 0.949 | 1.19 | 0.92 | 0.879 | 0.74 | 0.626 | 0.527 | 0.554 | 0.5 | 0.545 | 0.513
8 | COR-L 105 | 1.2 | 0.882 | 0.901 | 0.984 | 0.827 | 0.861 | 0.93 | 0.935 | 1.1 | 0.993 | 1.08 | 1.05 | 0.954 | 0.463 | 0.563 | 0.316 | 0.305 | 0.302 | 0.376 | 0.367
